Reference: patent US10722505B2, “Substituted 2,4 diamino-quinoline as new anticancer agents” (GENOSCIENCE PHARMA, priority 2014, dated 2020)
Where a name gives a salt, the structure may show the parent alone.

Key:
[1] = system: MRC-5 cell line; test: CellTiter-Glo growth inhibition assay, MRC-5; assay type: cell-based; conditions: MRC5; MRC-5, human fetal lung fibroblast, 72 h
Experimental: (§1) All cell lines were maintained in medium containing 1% penicillin-streptomycin (Dutscher, P06-07100) and 10% Fetal Bovine Serum (Gibco, W3387L) except 20% for KG-1 cell line and PBMC, and cultured at 37° C. with 5% CO2.
MRC-5 cell line was maintained in MEM (Dutscher, L0416).
(§2) Cell viability was measured using the CellTiter-Glo® luminescent cell viability assay as described by the manufacturer (Promega, Ref G7571) using an Infinite F200Pro luminometer (Tecan). Briefly, for adherent cells, cells were plated onto 96-well plates (white with clear bottom) in 90 μL of media per well and were allowed to grow overnight before the assay. For cells growing in suspension, cells were plated onto 96-well plates immediately before the assay.
(§3) Compounds were added at different concentrations to each well, and cell cultures were incubated for 72 h. Vehicle (H2O) was used as a control, and all compounds were tested in a constant percentage of H2O. After addition of 100 μL of CellTiter-Glo®, luminescence was measured using an Infinite F200Pro (Tecan). EC50 values were determined as the dose of compound required to reduce luminescent values to 50% of the signal obtained for untreated cell cultures. The experimental data were analyzed using a computer program, Graphpad Prism v5 (GraphPad Software, Inc. La Jolla, Calif.).
All experiments were at least done in duplicate and repeated two independent times.

[2] = system: LI1005 HCC patient derived cells; test: CellTiter-Glo growth inhibition, HCC patient-derived cells LI1005; assay type: cell-based, human; conditions: Homo sapiens; LI1005, 72 hours
Experimental: (§4) The patient derived Hepatocellular Carcinoma (HCC) cells were maintained in medium respectively described in table 15 containing 1% penicillin-streptomycin (Life Technologies, 15070-063), with a supplements for primary cell culture (PCS) containing hydrocortisone (50 nM), Epidermal Growth Factor (20 ng/ml), β-fibroblast Growth Factor (10 ng/ml), Heparin (2 μg/ml) ITS liquid media supplement (1×) and non-essential amino acid (NEAA, 0.01 mM, 1×). The primary cell were cultured in a humidified atmosphere (95% relative humidity) with 5% CO2 at 37° C.
(§5) The cell growth inhibition assay was performed as described previously in example 5 using the CellTiter-Glo® luminescent cell viability assay as described by the manufacturer (Promega, Ref G7571). The number of cells seeded per well (in 96-Well Flat Clear Bottom Black Polystyrene TC-Treated Microplates, Cat #3340, Corning®) is described in the table 16. A backseal black sticker (Cat #6005189, Perkin Elmer) was placed to the bottom of each plate before recording CellTiter-Glo® luminescence.
(§6) The experimental data are analyzed using a computer program, Graphpad Prism V 5.0 (GraphPad Software, Inc. La Jolla, Calif.) and EC50 values were determined as the dose of compound required to reduce absorbance values to 50% of the signal obtained for vehicle treated cell cultures and were a mean of at least three independent experiments.

[3] = system: KG-1 cell line; test: CellTiter-Glo growth inhibition assay, KG-1; assay type: cell-based; conditions: Homo sapiens; KG-1, acute myelogenous leukemia, 72 h
Experimental: as §1
(§7) KG-1 and MV4-11 cell line were maintained in Iscove's modified Dulbecco's medium (Dutscher, L0190).
as §2
as §3, with “Calif.). […]” for “Calif.).”

[4] = system: HCT-116 cell line; test: CellTiter-Glo growth inhibition assay, HCT-116; assay type: cell-based; conditions: Homo sapiens; HCT-116, colorectal carcinoma, 72 h
Experimental: as §1
(§8) HepG2, Huh7, HCT-116, MDA-MB-231 and A375 cell lines were cultured in Dulbecco's modified Eagle's medium (Dutscher, L0103).
as §2
as §3, with “Calif.). […]” for “Calif.).”

[5] = system: HepG2 cell line; test: CellTiter-Glo growth inhibition assay, HepG2; assay type: cell-based; conditions: Homo sapiens; HepG2, hepatocellular carcinoma, 72 h
Experimental: as §1, §8, §2
as §3, with “Calif.). […]” for “Calif.).”

[6] = system: PBMC (peripheral blood mononuclear cell); test: CellTiter-Glo growth inhibition assay, PBMC; assay type: cell-based; conditions: 72 h
Experimental: as §1
PBMC was maintained in RPMI 1640 medium medium (Dutscher, L0498).
as §2
as §3, with “Calif.). […]” for “Calif.).”

[7] = system: LI0050 HCC patient derived cells; test: CellTiter-Glo growth inhibition, HCC patient-derived cells LI0050; assay type: cell-based, human; conditions: Homo sapiens; LI0050, 72 hours
Experimental: as §4, §5, §6

[8] = system: CPP19 liver metastatic CRC patient-derived cells; test: CellTiter-Glo growth inhibition, liver metastatic CRC patient-derived cells CPP19; assay type: cell-based; conditions: Homo sapiens; CPP19, 72 h
Source text: (§9) Patient derived liver metastasis cells (CPP19, 30, 36 and CPP45—see table 1 for clinical descriptions) were maintained in complete DMEM (Gibco) with 10% FBS. Cells were obtained from biopsies provided by CHU-Caremeau (Nimes, France) within an approved protocol. Signed informed consents were obtained from patients prior to samples acquisition in accordance with all ethical and legal aspects. Tumors were washed, minced into fragments (<2 mm^3) and digested with liberase H (0.26 U/mL, Roche) resuspended in Accumax (Sigma-Aldrich). After 2 hours at 37° C., cell suspension was filtered through a […] to obtain a single cell suspension and plated in DMEM medium, supplemented with FBS, glutamine, antibiotics and non-essential aminoacids. When a monolayer of patient-derived tumor cells was formed, cells were detached using trypsin/EDTA and resuspended in DMEM with 10% FBS (for adherent cells) or defined M11 media (for sphere formation). Cells were cultured in a humidified atmosphere at 37° C. and 5% CO2.
(§10) Cells were plated at 10^4 cells per well in P96 well plates in DMEM with 10% FBS. After 24 hours, cells were treated with compound 2-3 and cell viability was assessed 72 h post-treatment by CellTiter-Glo® Luminescent Cell Viability Assay (Promega). EC50 were calculated using GraphPad Prism Software v6 (Graphpad Software, Inc La Jolla, Calif.). […]

[9] = system: MDA-MB-231 cell line; test: CellTiter-Glo growth inhibition assay, MDA-MB-231; assay type: cell-based; conditions: Homo sapiens; MDA-MB-231, breast adenocarcinoma, 72 h
Experimental: as §1, §8, §2
as §3, with “Calif.). […]” for “Calif.).”

[10] = system: MV4-11 cell line; test: CellTiter-Glo growth inhibition assay, MV4-11; assay type: cell-based; conditions: Homo sapiens; MV4-11, biphenotypic B myelomonocytic leukemia, 72 h
Experimental: as §1, §7, §2
as §3, with “Calif.). […]” for “Calif.).”

[11] = system: CPP36 liver metastatic CRC patient-derived cells; test: CellTiter-Glo growth inhibition, liver metastatic CRC patient-derived cells CPP36; assay type: cell-based; conditions: Homo sapiens; CPP36, 72 h
Source text: as §9, §10

[12] = system: A375 cell line; test: CellTiter-Glo growth inhibition assay, A375; assay type: cell-based; conditions: Homo sapiens, A-375; A375, malignant melanoma, 72 h
Experimental: as §1, §8, §2
as §3, with “Calif.). […]” for “Calif.).”

Which results are given for `CC(C)(C)NC1CCN(c2cc(NCc3ccc(Cl)cc3)nc3ccccc23)CC1` [Compound 2-3, 2-(4-chlorobenzylamino)-4-(4-tert-butylaminopiperidin-1-yl)-quinoline hydrochloride salt]?
EC50 [1]: ~3.4 µM; EC50 [2]: 3.2 µM; EC50 [3]: 5.1 µM; EC50 [4]: 1600 nM; EC50 [5]: 900 nM; EC50 [6]: 1900 nM; EC50 [7]: 3.5 µM; EC50 [8]: 1880 nM; EC50 [9]: 2000 nM; EC50 [10]: 2300 nM; EC50 [11]: 1450 nM; EC50 [12]: 1000 nM
